Source: patent US9776979B2, “EBI2 modulators” (Sanford-Burnham Medical Research Institute, priority 2013, dated 2017)
Where two headings read alike, the source gives them in different places.

Target: EBI2 (Homo sapiens, UniProt P32249)
Assay: Cell-based luminescent assay (EBI2 modulation)
How it was run: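 Cells plated overnight at 37° C, then exposed to compound at 4-5 uM final with 80 nM 7a,25-OHC agonist for 60 min at 37° C. Luminescence read after 60 min detection at 25° C in the dark; values normalized to neutral and stimulator controls and plate-pattern corrected.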

[1] = cell-based luminescence, 7a,25-OHC final assay concentration 80 nM, 60 minutes incubation, read-out: IC50

Sequence of EBI2 (P32249 whole entry): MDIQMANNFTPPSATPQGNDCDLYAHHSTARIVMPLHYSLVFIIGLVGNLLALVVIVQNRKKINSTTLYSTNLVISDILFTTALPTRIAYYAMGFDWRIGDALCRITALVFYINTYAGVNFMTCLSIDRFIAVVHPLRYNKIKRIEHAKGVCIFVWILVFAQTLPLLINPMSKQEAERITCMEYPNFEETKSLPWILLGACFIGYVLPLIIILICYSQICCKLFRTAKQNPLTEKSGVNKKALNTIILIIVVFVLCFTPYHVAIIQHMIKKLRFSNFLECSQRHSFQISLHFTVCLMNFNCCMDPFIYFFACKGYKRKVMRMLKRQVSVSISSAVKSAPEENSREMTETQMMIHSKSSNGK

## O=C(C=Cc1ccc2c(c1)OCO2)N1CCN(C(=O)c2ccc(Cl)cc2)CC1 [Compound C238, 3-(2H-benzo[3,4-d]1,3-dioxolen-5-yl)-1-{4-[(4-chlorophenyl)carbonyl]piperazinyl}prop-2-en-1-one]
[1]
  IC50: < 100 nM

## O=C(/C=C/c1ccccc1)N1CCN(Cc2cccc(F)c2)CC1 [Compound C240, (2E)-1-{4-[(3-fluorophenyl)methyl]piperazinyl}-3-phenylprop-2-en-1-one]
  IC50: < 100 nM

## Cc1ccccc1/C=C/C(=O)N1CCN(C(c2ccccc2)c2ccccc2)CC1 [Compound C241, (2E)-1-[4-(diphenylmethyl)piperazinyl]-3-(2-methylphenyl)prop-2-en-1-one]
[1]
  IC50: < 100 nM

## Cn1c(C(=O)N2CCN(C(c3ccccc3)c3ccccc3)CC2)cc2ccccc21 [Compound C242, 4-(diphenylmethyl)piperazinyl 1-methylindol-2-yl ketone]
[1]
  IC50: < 100 nM

## O=C(c1ccccc1)N1CCN(C(=O)c2cc3cc(Cl)ccc3[nH]2)CC1 [Compound C243, 5-chloroindol-2-yl 4-(phenylcarbonyl)piperazinyl ketone]
[1]
  IC50: < 100 nM

## Cc1ccc2[nH]c(C(=O)N3CCN(Cc4ccc(C(C)(C)C)cc4)CC3)cc2c1 [Compound C244, 4-{[4-(tert-butyl)phenyl]methyl}piperazinyl 5-methylindol-2-yl ketone]
[1]
  IC50: < 100 nM

## Cc1ccc(C#CC(=O)N2CCN(Cc3ccc(Cl)cc3)CC2)cc1 [Compound C245, 1-{4-[(4-chlorophenyl)methyl]piperazinyl}-3-(4-methylphenyl)prop-2-yn-1-one]
[1]
  IC50: < 100 nM

## O=C(c1cc2cc(C(F)(F)F)ccc2[nH]1)N1CCN(C(=O)c2ccc(Cl)cc2Cl)CC1 [Compound C246, 4-[(2,4-dichlorophenyl)carbonyl]piperazinyl 5-(trifluoromethyl)indol-2-yl ketone]
[1]
  IC50: < 100 nM

## O=C(c1ccc2sccc2c1)N1CCN(C(c2ccccc2)c2ccccc2)CC1 [Compound C247, benzo[b]thiophen-5-yl 4-(diphenylmethyl)piperazinyl ketone]
[1]
  IC50: < 100 nM

## O=C(/C=C/c1ccccc1)N1CCN(Cc2ccc(F)cc2)CC1 [Compound C248, (2E)-1-{4-[(4-fluorophenyl)methyl]piperazinyl}-3-phenylprop-2-en-1-one]
[1]
  IC50: < 100 nM

## O=C(C#Cc1ccc(Cl)c(Cl)c1)N1CCN(C(=O)c2ccc(C(F)(F)F)cc2)CC1 [Compound C249, 3-(3,4-dichlorophenyl)-1-(4-{[4-(trifluoromethyl)phenyl]carbonyl}piperazinyl)prop-2-yn-1-one]
[1]
  IC50: < 100 nM

## O=C(c1cc2cc(C(F)(F)F)ccc2[nH]1)N1CCN(Cc2cc(F)cc(F)c2)CC1 [Compound C251, 4-[(3,5-difluorophenyl)methyl]piperazinyl 5-(trifluoromethyl)indol-2-yl ketone]
[1]
  IC50: < 100 nM

## O=C(c1cc2cc(Cl)ccc2[nH]1)N1CCC(Nc2cccc(F)c2)CC1 [Compound C252, 5-chloroindol-2-yl 4-[(3-fluorophenyl)amino]piperidyl ketone]
  IC50: < 100 nM

## O=C(C#Cc1ccc(F)cc1)N1CCN(C(=O)c2ccc(C(F)(F)F)cc2)CC1 [Compound C253, 3-(4-fluorophenyl)-1-(4-{[4-(trifluoromethyl)phenyl]carbonyl}piperazinyl)prop-2-yn-1-one]
[1]
  IC50: < 100 nM

## O=C(c1ccc(Cl)cc1)N1CCN(C(=O)c2cc3ccc(Cl)cc3[nH]2)CC1 [Compound C255, 6-chloroindol-2-yl 4-[(4-chlorophenyl)carbonyl]piperazinyl ketone]
[1]
  IC50: < 100 nM

## COc1ccc(C(=O)N2CCN(C(=O)C=Cc3ccc4c(c3)OCO4)CC2)cc1 [Compound C256, 3-(2H-benzo[3,4-d]1,3-dioxolen-5-yl)-1-{4-[(4-methoxyphenyl)carbonyl]piperazinyl}prop-2-en-1-one]
[1]
  IC50: < 100 nM

## O=C(c1cnc2ccc(Cl)cc2c1)N1CCN(C(c2ccccc2)c2ccccc2)CC1 [Compound C257, 4-(diphenylmethyl)piperazinyl 6-chloro(3-quinolyl) ketone]
[1]
  IC50: < 100 nM

## O=C(c1cc2cc(Cl)ccc2[nH]1)N1CCC(Nc2ccc(F)cc2F)CC1 [Compound C258, 4-[(2,4-difluorophenyl)amino]piperidyl 5-chloroindol-2-yl ketone]
  IC50: < 100 nM

## CCCc1ccc(S(=O)(=O)N2CCN(C(=O)/C=C/c3ccc(F)cc3)CC2)cc1 [Compound C259, (2E)-3-(4-fluorophenyl)-1-{4-[(4-propylphenyl)sulfonyl]piperazinyl}prop-2-en-1-one]
[1]
  IC50: < 100 nM

## Cc1ccc(CN2CCN(C(=O)/C=C/c3ccccc3)CC2)cc1 [Compound C260]
  IC50: < 100 nM

## CC(C)c1ccc(S(=O)(=O)N2CCN(C(=O)/C=C/c3ccc(F)cc3)CC2)cc1 [Compound C261, (2E)-3-(4-fluorophenyl)-1-(4-{[4-(methylethyl)phenyl]sulfonyl}piperazinyl)prop-2-en-1-one]
[1]
  IC50: < 100 nM

## O=C(C#Cc1cccc(Cl)c1Cl)N1CCN(Cc2ccc(F)cc2)CC1 [Compound C262, 3-(2,3-dichlorophenyl)-1-{4-[(4-fluorophenyl)methyl]piperazinyl}prop-2-yn-1-one]
[1]
  IC50: < 100 nM

## O=C(c1cc2c(F)cc(F)cc2[nH]1)N1CCN(C(c2ccccc2)c2ccccc2)CC1 [Compound C263, 4,6-difluoroindol-2-yl 4-(diphenylmethyl)piperazinyl ketone]
[1]
  IC50: < 100 nM

## O=C(c1ccc(Br)cc1)N1CCN(C(=O)c2cc3ccc(Br)cc3[nH]2)CC1 [Compound C264, 6-bromoindol-2-yl 4-[(4-bromophenyl)carbonyl]piperazinyl ketone]
[1]
  IC50: < 100 nM

## O=C(/C=C/c1cccc(C(F)(F)F)c1)N1CCN(C(c2ccccc2)c2ccccc2)CC1 [Compound C265, (2E)-1-[4-(diphenylmethyl)piperazinyl]-3-[3-(trifluoromethyl)phenyl]prop-2-en-1-one]
[1]
  IC50: < 100 nM

## O=C(C#Cc1ccc2c(c1)OCO2)N1CCN(C(=O)c2ccc(C(F)(F)F)cc2)CC1 [Compound C266, 3-(2H-benzo[3,4-d]1,3-dioxolen-5-yl)-1-(4-{[4-(trifluoromethyl)phenyl]carbonyl}piperazinyl)prop-2-yn-1-one]
[1]
  IC50: < 100 nM

## O=C(/C=C/c1ccc(Br)cc1)N1CCN(C(=O)c2cccc(B(O)O)c2)CC1 [Compound C267, (E)-(3-(4-(3-(4-bromophenyl)acryloyl)piperazine-1-carbonyl)phenyl)boronic acid]
[1]
  IC50: < 100 nM

## O=C(c1ccc(F)cc1)N1CCN(C(=O)c2cc3ccc(Cl)cc3[nH]2)CC1 [Compound C268, 6-chloroindol-2-yl 4-[(4-fluorophenyl)carbonyl]piperazinyl ketone]
[1]
  IC50: < 100 nM

## O=C(/C=C/c1ccc(Br)cc1)N1CCN(Cc2ccccc2F)CC1 [Compound C269, (2E)-3-(4-bromophenyl)-1-{4-[(2-fluorophenyl)methyl]piperazinyl}prop-2-en-1-one]
[1]
  IC50: < 100 nM

## O=C(/C=C/c1ccccc1)N1CCN(CCc2ccc(Cl)cc2)CC1 [Compound C270, (2E)-1-{4-[2-(4-chlorophenyl)ethyl]piperazinyl}-3-phenylprop-2-en-1-one]
[1]
  IC50: < 100 nM

## O=C(c1cccc(C(F)(F)F)c1)N1CCN(C(=O)c2cc3cc(C(F)(F)F)ccc3[nH]2)CC1 [Compound C271, 5-(trifluoromethyl)indol-2-yl 4-{[3-(trifluoromethyl)phenyl]carbonyl}piperazinyl ketone]
[1]
  IC50: < 100 nM

## O=C(c1cc2cc(Cl)ccc2[nH]1)N1CCC(Oc2cccc(Cl)c2)CC1 [Compound C272, 5-chloroindol-2-yl 4-(3-chlorophenoxy)piperidyl ketone]
[1]
  IC50: < 100 nM

## O=C(c1cc2cc(Cl)ccc2[nH]1)N1CCC(Nc2cc(F)cc(F)c2)CC1 [Compound C273, 4-[(3,5-difluorophenyl)amino]piperidyl 5-chloroindol-2-yl ketone]
  IC50: < 100 nM

## COc1ccc(CN2CCN(C(=O)C#Cc3ccc(Br)cc3)CC2)cc1 [Compound C274, 3-(4-bromophenyl)-1-{4-[(4-methoxyphenyl)methyl]piperazinyl}prop-2-yn-1-one]
[1]
  IC50: < 100 nM

## O=C(c1cnc2ccccc2n1)N1CCN(C(c2ccccc2)c2ccccc2)CC1 [Compound C276, 4-(diphenylmethyl)piperazinyl quinoxalin-2-yl ketone]
[1]
  IC50: 100 to 500 nM

## O=C(/C=C/c1ccccc1C(F)(F)F)N1CCN(S(=O)(=O)c2ccc(Br)cc2)CC1 [Compound C277, (2E)-1-{4-[(4-bromophenyl)sulfonyl]piperazinyl}-3-[2-(trifluoromethyl)phenyl]prop-2-en-1-one]
[1]
  IC50: 100 to 500 nM

## O=C(c1cc2ccccn2n1)N1CCN(C(=O)c2cc3cc(Cl)ccc3[nH]2)CC1 [Compound C278, 5-chloroindol-2-yl 4-(8-hydropyrazolo[1,5-a]pyridin-2-ylcarbonyl)piperazinyl ketone]
[1]
  IC50: 100 to 500 nM

## O=C(c1cn2ccccc2n1)N1CCN(C(=O)c2cc3cc(Cl)ccc3[nH]2)CC1 [Compound C279, 5-chloroindol-2-yl 4-(4-hydroimidazo[1,2-a]pyridin-2-ylcarbonyl)piperazinyl ketone]
[1]
  IC50: 100 to 500 nM

## COc1cc2cc(C(=O)N3CCN(C(c4ccccc4)c4ccccc4)CC3)[nH]c2cc1OC [Compound C280, 5,6-dimethoxyindol-2-yl 4-(diphenylmethyl)piperazinyl ketone]
[1]
  IC50: 100 to 500 nM

## O=C(C#Cc1cccc(Cl)c1Cl)N1CCN(Cc2ccc(C(F)(F)F)cc2)CC1 [Compound C281, 3-(2,3-dichlorophenyl)-1-(4-{[4-(trifluoromethyl)phenyl]methyl}piperazinyl)prop-2-yn-1-one]
[1]
  IC50: 100 to 500 nM

## NC(=O)c1ccc(C(=O)N2CCN(C(=O)c3cc4cc(Cl)ccc4[nH]3)CC2)cc1 [Compound C282, 4-({4-[(5-chloroindol-2-yl)carbonyl]piperazinyl}carbonyl)benzamide]
[1]
  IC50: 100 to 500 nM

## O=C(c1ccc2nc(C(F)F)[nH]c2c1)N1CCN(C(c2ccccc2)c2ccccc2)CC1 [Compound C283, 2-(difluoromethyl)benzimidazol-5-yl 4-(diphenylmethyl)piperazinyl ketone]
[1]
  IC50: 100 to 500 nM
